Reference: patent publication US7932283B2, “Fungicide N-cyclopropyl-sulfonylamide derivatives” (Bayer Cropscience AG, priority 2006, dated 2011)

Experiment: logP by HPLC on reversed-phase column (C 18), EEC Directive 79/B31 Annex V.A8, methods A and B
Type: physicochemical
Conditions: HPLC reversed-phase C 18, method B: 40° C., 0.1% aqueous formic acid and acetonitrile, linear gradient 10% to 90% acetonitrile
Procedure: Calibration was carried out using unbranched alkan-2-ones (having 3 to 16 carbon atoms) with known logP values (determination of the logP values by the retention times using linear interpolation between two successive alkanones).

LogP | Compound
5.0 | CCCOc1nn(C)cc1C(=O)N(C1CC1)S(=O)(=O)c1ccc(Oc2ccc(F)c(O)c2)cc1Br [Compound 304]

Same assay, conditions: reversed-phase HPLC column (C 18), HPLC reversed-phase C 18, method A: 43° C., 0.1% aqueous phosphoric acid, acetonitrile, linear gradient 10% to 90% acetonitrile

chromatographic logP | Compound
2.97 | Cc1c(C(=O)N(C2CC2)S(=O)(=O)c2ccccc2O)cnn1-c1ccccc1 [Compound 201]
3.33 | Cc1ncc(C(=O)N(C2CC2)S(=O)(=O)c2ccc(O)c(O)c2)s1 [Compound 63]
3.46 | CCOC(=O)c1[nH]c(C)c(C(=O)N(C2CC2)S(=O)(=O)c2cccc(O)c2)c1C [Compound 29]
2.91 | Cc1nn(C)c(F)c1C(=O)N(C1CC1)S(=O)(=O)c1cc(O)ccc1O [Compound 191]

Same assay, conditions: reversed-phase HPLC column (C 18), HPLC reversed-phase C 18, method B: 40° C., 0.1% aqueous formic acid and acetonitrile, linear gradient 10% to 90% acetonitrile

chromatographic logP | Compound
3.6 | CC(C)c1nn(C)c(F)c1C(=O)N(C1CC1)S(=O)(=O)c1cccc(O)c1O [Compound 93]
3.3 | Cc1cc(C(=O)N(C2CC2)S(=O)(=O)c2ccc(O)c(O)c2O)nn1C [Compound 75]
3.4 | Cn1nc(C(F)F)c(C(=O)N(C2CC2)S(=O)(=O)c2ccc(O)cc2O)c1F [Compound 105]
3.2 | COc1nn(C)c(O)c1C(=O)N(C1CC1)S(=O)(=O)c1cccc(O)c1O [Compound 278]
4.1 | Cn1nc(C(F)(F)F)c(C(=O)N(C2CC2)S(=O)(=O)c2ccc(O)c(O)c2O)c1F [Compound 108]
3.9 | Cc1nn(C)c(C#N)c1C(=O)N(C1CC1)S(=O)(=O)c1ccc(O)c(O)c1O [Compound 228]
3 | CCCOc1nn(C)cc1C(=O)N(C1CC1)S(=O)(=O)c1ccc(Oc2ccc(-n3cncn3)cc2)cc1Br [Compound 286]
4.5 | Cn1cc(C(=O)N(C2CC2)S(=O)(=O)c2ccc(Oc3ccc(Br)cc3)cc2)c(C(F)(F)F)c1 [Compound 39]
2.6 | Cc1cc(O)cc(O)c1S(=O)(=O)N(C(=O)c1c(C(F)(F)F)nn(C)c1F)C1CC1 [Compound 367]
2.8 | CC(F)c1nn(C)cc1C(=O)N(C1CC1)S(=O)(=O)c1cccc(O)c1O (centres unmarked) [Compound 119]
3.8 | COc1nn(C)c(O)c1C(=O)N(C1CC1)S(=O)(=O)c1ccc(O)c(O)c1O [Compound 282]
3.8 | Cn1nc(C(F)F)c(C(=O)N(C2CC2)S(=O)(=O)c2ccc(Oc3ccccc3)cc2)c1F [Compound 107]

Same assay, conditions: reversed-phase HPLC column (C 18), LogP method A: HPLC reversed-phase C 18, 43° C., 0.1% aqueous phosphoric acid / acetonitrile, linear gradient 10% to 90% acetonitrile

chromatographic logP | Compound
2.01 | CC(C)c1c(C(=O)N(C2CC2)S(=O)(=O)c2cccc(O)c2)sc(=O)n1C1CC1 [Compound 617]
3.1 | O=C(c1cccnc1)N(C1CC1)S(=O)(=O)c1ccc(O)c(C(F)(F)F)c1 [Compound 638]
2.01 | CCc1c(C(=O)N(C2CC2)S(=O)(=O)c2ccc(C(F)(F)F)cc2)sc(=O)n1C1CC1 [Compound 616]
4.56 | Cc1nn(C)c(Oc2cccc(Cl)c2)c1C(=O)N(C1CC1)S(=O)(=O)c1ccc(O)c(C(F)(F)F)c1 [Compound 404]
2.01 | Cc1c(C(=O)N(C2CC2)S(=O)(=O)c2ccc(O)c(O)c2)sc(=O)n1C [Compound 623]

Same assay, conditions: reversed-phase HPLC column (C 18), LogP method B: HPLC reversed-phase C 18, 40° C., 0.1% aqueous formic acid / acetonitrile, linear gradient 10% to 90% acetonitrile

chromatographic logP | Compound
2.4 | O=C(c1cccnc1F)N(C1CC1)S(=O)(=O)c1cccc(O)c1O [Compound 649]
3.8 | CCOc1nn(C)cc1C(=O)N(C1CC1)S(=O)(=O)c1ccc(OC2=CC(N(C)C)=CCC2)cc1O [Compound 532]
5.6 | CCCCCc1ccc(Oc2ccc(S(=O)(=O)N(C(=O)c3cn(C)nc3OCC)C3CC3)c(Br)c2)cc1 [Compound 560]
4 | CCOc1nn(C)cc1C(=O)N(C1CC1)S(=O)(=O)C1C=CC(Oc2ccc(F)c(O)c2)=CC1O (centres unmarked) [Compound 536]
3.3 | COc1ccc(Oc2ccc(S(=O)(=O)N(C(=O)c3cn(C)nc3OC)C3CC3)c(Br)c2)cc1 [Compound 463]
3.9 | COc1nn(C)cc1C(=O)N(C1CC1)S(=O)(=O)c1ccc(Oc2ccc(Br)cc2)cc1Br [Compound 474]

Same assay, conditions: reversed-phase HPLC column (C 18), Method B: 40° C., 0.1% aqueous formic acid and acetonitrile

chromatographic logP | Compound
4.04 | COC(=O)C1(N(C(=O)c2c(C(F)(F)F)nn(C)c2F)S(=O)(=O)c2ccc(O)c(O)c2O)CC1 [Compound 667]
